Test results published in patent US9085550B2, “Ligands for estrogen related receptors and methods for synthesis of said ligands” (CITY OF HOPE, priority 2005, dated 2015).
Values belong to the molecule of their own block, whether it stands above or below them.

Columns and labels:
[1] = target: T1, HRHN-GAL (yeast GAL4 DNA binding domain without receptor sequences) (Saccharomyces cerevisiae, UniProt P04386); test: GAL4 reporter transactivation assay in CV-1 cells, control vector without receptor; type: cell-based, monkey
T1 construct: expressed in transfected cells; host or cells: CV-1
T1 sequence (P04386 1-147): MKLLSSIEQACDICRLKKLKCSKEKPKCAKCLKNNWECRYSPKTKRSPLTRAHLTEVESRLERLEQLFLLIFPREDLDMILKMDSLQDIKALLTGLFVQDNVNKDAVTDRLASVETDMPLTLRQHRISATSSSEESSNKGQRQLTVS

[2] = target: T2, GAL-hERRa (human ERRα ligand binding domain fused to GAL4 DNA binding domain) (Homo sapiens, UniProt P11474); test: GAL4 reporter transactivation assay in CV-1 cells, GAL-hERRa; type: cell-based
T2 construct: expressed in transfected cells; host or cells: CV-1
T2 sequence (P11474 193-421 limits assumed): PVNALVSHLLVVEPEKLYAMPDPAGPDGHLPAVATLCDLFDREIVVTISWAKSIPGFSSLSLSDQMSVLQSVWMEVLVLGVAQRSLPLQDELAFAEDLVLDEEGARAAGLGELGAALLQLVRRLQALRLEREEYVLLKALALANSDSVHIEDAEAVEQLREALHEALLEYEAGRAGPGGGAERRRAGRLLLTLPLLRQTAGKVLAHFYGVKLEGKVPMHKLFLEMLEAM

[3] = target: T3, GAL-L-hERRb (human ERRβ ligand binding domain fused to GAL4 DNA binding domain) (Homo sapiens, UniProt O95718); test: GAL4 reporter transactivation assay in CV-1 cells, GAL-L-hERRb; type: cell-based
T3 construct: expressed in transfected cells; host or cells: CV-1
T3 sequence (O95718 208-432 limits assumed): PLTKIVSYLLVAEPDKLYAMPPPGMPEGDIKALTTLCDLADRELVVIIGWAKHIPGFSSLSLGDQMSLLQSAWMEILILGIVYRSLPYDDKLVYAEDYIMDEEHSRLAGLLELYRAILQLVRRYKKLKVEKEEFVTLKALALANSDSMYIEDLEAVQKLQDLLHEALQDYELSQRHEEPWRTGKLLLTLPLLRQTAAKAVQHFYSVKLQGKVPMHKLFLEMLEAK

[4] = target: T4, GAL-mERRg (mouse ERRγ ligand binding domain fused to GAL4 DNA binding domain) (Mus musculus, UniProt P62509); test: GAL4 reporter transactivation assay in CV-1 cells, GAL-mERRg; type: cell-based
T4 construct: expressed in transfected cells; host or cells: CV-1
T4 sequence (P62509 233-457 limits assumed): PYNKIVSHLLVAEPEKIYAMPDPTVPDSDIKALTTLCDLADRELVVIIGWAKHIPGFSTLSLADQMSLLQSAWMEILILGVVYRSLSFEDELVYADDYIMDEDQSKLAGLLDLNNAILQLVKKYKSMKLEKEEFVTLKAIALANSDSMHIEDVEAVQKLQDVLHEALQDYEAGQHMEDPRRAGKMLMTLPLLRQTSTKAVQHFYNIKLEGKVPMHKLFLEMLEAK

[5] = target: T5, human ERα (Homo sapiens, UniProt P03372); test: ERE-TK-luc reporter transactivation assay in CV-1 cells, full-length hERa; type: cell-based
T5 construct: Human ERα and ERβ were examined as full-length proteins using an estrogen receptor responsive reporter construct; expressed in transfected cells; host or cells: CV-1
T5 sequence (P03372 1-595): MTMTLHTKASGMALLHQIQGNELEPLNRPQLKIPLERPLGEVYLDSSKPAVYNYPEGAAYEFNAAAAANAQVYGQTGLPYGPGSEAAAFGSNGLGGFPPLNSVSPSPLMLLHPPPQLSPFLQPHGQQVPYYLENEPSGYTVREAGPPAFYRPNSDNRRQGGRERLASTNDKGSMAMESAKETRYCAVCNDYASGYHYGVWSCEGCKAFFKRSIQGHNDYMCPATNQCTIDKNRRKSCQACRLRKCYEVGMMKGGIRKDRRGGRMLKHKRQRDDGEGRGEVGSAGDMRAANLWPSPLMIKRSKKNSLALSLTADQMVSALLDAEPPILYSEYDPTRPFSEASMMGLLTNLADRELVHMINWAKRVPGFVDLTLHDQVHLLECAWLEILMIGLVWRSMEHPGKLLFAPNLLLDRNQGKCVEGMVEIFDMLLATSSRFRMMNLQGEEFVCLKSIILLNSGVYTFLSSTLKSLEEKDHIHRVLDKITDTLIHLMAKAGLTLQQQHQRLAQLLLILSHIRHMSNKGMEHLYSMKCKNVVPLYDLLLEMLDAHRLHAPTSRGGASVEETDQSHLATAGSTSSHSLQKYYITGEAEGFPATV
Method: (§1) Human ERα and ERβ were examined as full-length proteins using an estrogen receptor responsive reporter construct.
(§2) Suitable reporter gene constructs are well known to skilled workers in the fields of biochemistry and molecular biology. […] Other vectors known in the art can be used in the methods of the present invention.
(§3) CV-1 cells for the activation assays were grown in Dulbecco's modified Eagle's medium supplemented with 10% resin charcoal-stripped fetal bovine serum, 50 U/ml penicillin G and 50 μg/ml streptomycin sulfate (DMEM-FBS) at 37° C. in 5% CO2. One day prior to transfection, cells were plated to 50-80% confluence using phenol red free DMEM-FBS.

[6] = target: T6, human ERβ (Homo sapiens, UniProt Q92731); test: ERE-TK-luc reporter transactivation assay in CV-1 cells, full-length hERb; type: cell-based
T6 construct: Human ERα and ERβ were examined as full-length proteins using an estrogen receptor responsive reporter construct; expressed in transfected cells; host or cells: CV-1
T6 sequence (Q92731 whole entry): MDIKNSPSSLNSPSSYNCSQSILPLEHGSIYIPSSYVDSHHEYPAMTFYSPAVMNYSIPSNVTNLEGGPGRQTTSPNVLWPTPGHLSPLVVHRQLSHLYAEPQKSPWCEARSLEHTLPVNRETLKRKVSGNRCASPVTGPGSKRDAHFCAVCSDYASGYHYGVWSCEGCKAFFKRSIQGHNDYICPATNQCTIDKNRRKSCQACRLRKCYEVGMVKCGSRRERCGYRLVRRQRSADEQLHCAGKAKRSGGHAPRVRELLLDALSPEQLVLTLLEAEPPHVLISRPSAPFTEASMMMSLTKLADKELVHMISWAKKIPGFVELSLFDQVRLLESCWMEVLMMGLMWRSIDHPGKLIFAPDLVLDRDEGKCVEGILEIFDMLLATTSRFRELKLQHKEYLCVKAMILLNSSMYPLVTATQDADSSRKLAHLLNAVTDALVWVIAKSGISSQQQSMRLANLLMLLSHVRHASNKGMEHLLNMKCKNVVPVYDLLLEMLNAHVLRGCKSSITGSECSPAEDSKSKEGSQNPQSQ
Method: as §1, §2, §3

[7] = target: T7, ERRγ (Homo sapiens, UniProt P62508); details: background statement; cited from earlier work
T7 sequence (P62508 1-458): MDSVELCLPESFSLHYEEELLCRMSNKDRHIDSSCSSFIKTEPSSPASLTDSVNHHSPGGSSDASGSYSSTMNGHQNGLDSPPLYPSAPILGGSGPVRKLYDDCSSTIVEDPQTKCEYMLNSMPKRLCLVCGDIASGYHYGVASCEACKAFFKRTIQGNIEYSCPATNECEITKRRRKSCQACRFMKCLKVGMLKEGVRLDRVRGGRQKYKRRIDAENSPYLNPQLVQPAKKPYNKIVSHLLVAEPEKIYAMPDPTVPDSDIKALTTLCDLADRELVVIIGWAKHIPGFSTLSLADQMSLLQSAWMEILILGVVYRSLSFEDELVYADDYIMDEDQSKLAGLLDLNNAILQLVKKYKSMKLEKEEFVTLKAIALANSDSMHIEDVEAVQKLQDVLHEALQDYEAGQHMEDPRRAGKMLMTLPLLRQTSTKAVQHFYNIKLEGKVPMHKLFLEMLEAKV

[8] = CV-1, reporter 0.42:vector 0.00875:PGC-1a 0.035, 30 μM
[9] = CV-1, reporter 0.42:vector 0.00875, no PGC-1a, 30 μM

SMILES: O=C(NN=Cc1ccc(C(F)(F)F)c([N+](=O)[O-])c1)c1ccc(O)cc1 [DY170, 4-Hydroxy-benzoic acid (3-nitro-4-trifluoromethyl-benzylidene)-hydrazide]
melting point: 279.6 °C

SMILES: Cc1[nH]c(C=NNC(=O)c2ccc(O)cc2)c(C)c1Br [DY172, 4-Hydroxy-benzoic acid (4-bromo-3,5-dimethyl-1H-pyrrol-2-ylmethylene)-hydrazide]
melting point: 235.4 °C

SMILES: Cc1cc(C)c(C=NNC(=O)c2ccc(O)cc2)[nH]1 [DY171, 4-Hydroxy-benzoic acid (3,5-dimethyl-1H-pyrrol-2-ylmethylene)-hydrazide]
melting point: 261.2 °C

SMILES: COc1cc(/C=C(\C#N)C(=O)Nc2nnc(C(F)(F)F)s2)ccc1OCc1ccc(C(F)(F)F)cc1C(F)(F)F [XCT790]
Activity on ERRγ [7]: no activity

SMILES: O=C(NN=Cc1cccc(C(F)(F)F)c1Cl)c1ccc(O)cc1 [DY165, 4-Hydroxy-benzoic acid (2-chloro-3-trifluoromethyl-benzylidene)-hydrazide]
melting point: 261.5 °C

SMILES: Oc1nc(Cl)nc(NN=Cc2cc(C(F)(F)F)cc(C(F)(F)F)c2)n1 [DY176, 4-[N′-(3,5-Bis-trifluoromethyl-benzylidene)-hydrazino]-6-chloro-[1,3,5]triazin-2-ol]
melting point: 258.3 °C

The next lines start with the values.

Fold activation, HRHN-GAL ([1]; reporter 0.42:vector 0.00875, no PGC-1a, 30 μM): 1.46 fold
Fold activation, HRHN-GAL + PGC-1a ([1]; reporter 0.42:vector 0.00875:PGC-1a 0.035, 30 μM): 1.62 fold
Fold activation, GAL-hERRa + PGC-1a [2, 8]: 2.75 fold
Fold activation, GAL-hERRa [2, 9]: 1.74 fold
Activation of ERRα ([2]; in the presence of PGC-1a): can activate
Fold activation, GAL-L-hERRb + PGC-1a [3, 8]: 2.34 fold
Fold activation, GAL-L-hERRb [3, 9]: 1.89 fold
Activation of ERRβ ([3]; in the presence of PGC-1a): can activate
Fold activation, GAL-mERRg + PGC-1a [4, 8]: 2.45 fold
Fold activation, GAL-mERRg [4, 9]: 2.10 fold
Activation of ERRγ ([4]; in the presence of PGC-1a): can activate
Fold Activation, ERE-TK-luc, hERa ([5]; Table 7, CV-1, drug conc 30 μM): 1.30 fold
Activation of ERa ([5]; specificity for ERRs): do not activate
Fold Activation, ERE-TK-luc, hERb ([6]; Table 7, CV-1, drug conc 30 μM): 1.74 fold
Activation of ERb ([6]; specificity for ERRs): do not activate
melting point: 194.5 °C
SMILES: CCc1ccc(C=NNC(=O)c2ccc(O)cc2)s1 [DY164, 4-Hydroxy-benzoic acid (5-ethyl-thiophen-2-ylmethylene)-hydrazide]

melting point: 215.7 °C
SMILES: Cc1ccc(C=NNC(=O)c2ccc(O)cc2)s1 [DY166, 4-Hydroxy-benzoic acid (5-methyl-thiophen-2-ylmethylene)-hydrazide]

melting point: 260.5 °C
SMILES: O=C(NN=Cc1ccc(C(F)(F)F)cc1)c1ccc(O)cc1 [DY168, 4-Hydroxy-benzoic acid (4-trifluoromethyl-benzylidene)-hydrazide]

melting point: 251.4 °C
SMILES: Cc1cc(C=NNC(=O)c2ccc(O)cc2)oc1C [DY173, 4-Hydroxy-benzoic acid (4,5-dimethyl-furan-2-ylmethylene)-hydrazide]

melting point: 60.5 °C
SMILES: CCc1ccc(C=NNC(=O)c2ccc(O)cc2)o1 [DY175, 4-Hydroxy-benzoic acid (5-ethyl-furan-2-ylmethylene)-hydrazide]
